Test results from patent US12139499B2, “Heteroaryl compounds for treating Huntington's disease” (PTC THERAPEUTICS, INC., priority 2018, dated 2024).

System: Endogenous Huntingtin Protein
Experiment: Endogenous Huntingtin Protein Assay (ELISA-based MSD electrochemiluminescence)
Type: cell-based
Conditions: Table 1
Outline: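 Sandwich MSD electrochemiluminescence immunoassay. Capture used MW1 (expanded polyglutamine) or MAB2166 antibody coated at 1 μg/mL overnight at 4 °C. Samples were bound overnight at 4 °C, then a rabbit monoclonal detection antibody and SULFO-TAG anti-rabbit, each at 0.25 μg/mL, were applied for 1 h at room temperature.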

| IC50 | Structure (SMILES) |
| --- | --- |
| 100 to 500 nM | CN[C@H]1C[C@@H](N(C)c2nc3nnc(-c4ccc(-c5cn[nH]c5)cc4O)cc3s2)C1 [Compound 361, 2-(6-{methyl[(1s,3s)-3-(methylamino)cyclobutyl]amino}[1,3]thiazolo[4,5-c]pyridazin-3-yl)-5-(1H-pyrazol-4-yl)phenol] |
| ≤ 100 nM | Oc1cc(-c2cn[nH]c2)ccc1-c1cc2sc(N3CC[C@H]4CCNC[C@H]43)nc2nn1 [Compound 362, 2-{6-[(3aR,7aS)-octahydro-1H-pyrrolo[2,3-c]pyridin-1-yl][1,3]thiazolo[4,5-c]pyridazin-3-yl}-5-(1H-pyrazol-4-yl)phenol] |
| ≤ 100 nM | Oc1cc(-c2cn[nH]c2)ccc1-c1cc2sc(N3CCC34CCCNC4)nc2nn1 (stereo not drawn) [Compound 363, 2-[6-(1,6-diazaspiro[3.5]nonan-1-yl)[1,3]thiazolo[4,5-c]pyridazin-3-yl]-5-(1H-pyrazol-4-yl)phenol] |
| 1000 to 3000 nM | CN(C)[C@H]1C[C@@H](N(C)c2nc3nnc(-c4ccc(-c5cn[nH]c5)cc4O)cc3s2)C1 [Compound 364, 2-(6-{[(1s,3s)-3-(dimethylamino)cyclobutyl](methyl)amino}[1,3]thiazolo[4,5-c]pyridazin-3-yl)-5-(1H-pyrazol-4-yl)phenol] |
| ≤ 100 nM | CN1CCC(Nc2nc3nnc(-c4ccc(-c5cn[nH]c5)cc4O)cc3s2)CC1 [Compound 366, 2-{6-[(1-methylpiperidin-4-yl)amino][1,3]thiazolo[4,5-c]pyridazin-3-yl}-5-(1H-pyrazol-4-yl)phenol] |
| 100 to 500 nM | Oc1cc(-c2cn[nH]c2)ccc1-c1cc2sc(NC3CCNC3)nc2nn1 (stereo not drawn) [Compound 367, 5-(1H-pyrazol-4-yl)-2-{6-[(pyrrolidin-3-yl)amino][1,3]thiazolo[4,5-c]pyridazin-3-yl}phenol] |
| 100 to 500 nM | Oc1cc(-c2c[nH]nc2F)ccc1-c1cc2sc(N3CC4(CNC4)C3)nc2nn1 [Compound 368, 2-[6-(2,6-diazaspiro[3.3]heptan-2-yl)[1,3]thiazolo[4,5-c]pyridazin-3-yl]-5-(3-fluoro-1H-pyrazol-4-yl)phenol] |
| 100 to 500 nM | CN1CC[C@@H]2CCN(c3nc4nnc(-c5ccc(-c6cn[nH]c6)cc5O)cc4s3)[C@@H]2C1 [Compound 369, 2-{6-[(3aR,7aS)-6-methyloctahydro-1H-pyrrolo[2,3-c]pyridin-1-yl][1,3]thiazolo[4,5-c]pyridazin-3-yl}-5-(1H-pyrazol-4-yl)phenol] |
| ≤ 100 nM | CN1CCCC2(CCN2c2nc3nnc(-c4ccc(-c5cn[nH]c5)cc4O)cc3s2)C1 (stereo not drawn) [Compound 370, 2-[6-(6-methyl-1,6-diazaspiro[3.5]nonan-1-yl)[1,3]thiazolo[4,5-c]pyridazin-3-yl]-5-(1H-pyrazol-4-yl)phenol] |
| ≤ 100 nM | CN1CCC(Nc2nc3nnc(-c4ccc(-c5cn[nH]c5)cc4O)cc3s2)C1 (stereo not drawn) [Compound 373, 2-{6-[(1-methylpyrrolidin-3-yl)amino][1,3]thiazolo[4,5-c]pyridazin-3-yl}-5-(1H-pyrazol-4-yl)phenol] |
| ≤ 100 nM | CN(c1nc2nnc(-c3ccc(-c4cn[nH]c4)cc3O)cc2s1)C1CCNC1 (stereo not drawn) [Compound 374, 2-{6-[methyl(pyrrolidin-3-yl)amino][1,3]thiazolo[4,5-c]pyridazin-3-yl}-5-(1H-pyrazol-4-yl)phenol] |
| ≤ 100 nM | CN1CCC(N(C)c2nc3nnc(-c4ccc(-c5cn[nH]c5)cc4O)cc3s2)C1 (stereo not drawn) [Compound 375, 2-{6-[methyl(1-methylpyrrolidin-3-yl)amino][1,3]thiazolo[4,5-c]pyridazin-3-yl}-5-(1H-pyrazol-4-yl)phenol] |
| 100 to 500 nM | CN[C@H]1C[C@H](N(C)c2nc3nnc(-c4ccc(-c5cn[nH]c5)cc4O)cc3s2)C1 [Compound 376, 2-(6-{methyl[(1r,3r)-3-(methylamino)cyclobutyl]amino}[1,3]thiazolo[4,5-c]pyridazin-3-yl)-5-(1H-pyrazol-4-yl)phenol] |
| 100 to 500 nM | CN(c1nc2nnc(-c3ccc(-c4cn[nH]c4)cc3O)cc2s1)[C@H]1CNC[C@@H]1F [Compound 381, 2-(6-{[(3S,4S)-4-fluoropyrrolidin-3-yl](methyl)amino}[1,3]thiazolo[4,5-c]pyridazin-3-yl)-5-(1H-pyrazol-4-yl)phenol] |
| 100 to 500 nM | CN1C[C@H](F)[C@@H](N(C)c2nc3nnc(-c4ccc(-c5cn[nH]c5)cc4O)cc3s2)C1 [Compound 382, 2-(6-{[(3S,4S)-4-fluoro-1-methylpyrrolidin-3-yl](methyl)amino}[1,3]thiazolo[4,5-c]pyridazin-3-yl)-5-(1H-pyrazol-4-yl)phenol] |
| ≤ 100 nM | CN1CC2(C1)CN(c1nc3nnc(-c4ccc(-c5c[nH]nc5F)cc4O)cc3s1)C2 [Compound 385, 5-(3-fluoro-1H-pyrazol-4-yl)-2-[6-(6-methyl-2,6-diazaspiro[3.3]heptan-2-yl)[1,3]thiazolo[4,5-c]pyridazin-3-yl]phenol] |
| ≤ 100 nM | Oc1cc(-c2cn[nH]c2)ccc1-c1cc2sc(N3C[C@H]4CCNC[C@H]43)nc2nn1 [Compound 386, 2-{6-[(1S,6R)-3,8-diazabicyclo[4.2.0]octan-8-yl][1,3]thiazolo[4,5-c]pyridazin-3-yl}-5-(1H-pyrazol-4-yl)phenol] |
| ≤ 100 nM | CN(c1nc2nnc(-c3ccc(-c4c[nH]nc4F)cc3O)cc2s1)C1CCNC1 (stereo not drawn) [Compound 387, 5-(3-fluoro-1H-pyrazol-4-yl)-2-[6-[methyl(pyrrolidin-3-yl)amino][1,3]thiazolo[4,5-c]pyridazin-3-yl}phenol] |
| 100 to 500 nM | CN1CC[C@@H]2CN(c3nc4nnc(-c5ccc(-c6cn[nH]c6)cc5O)cc4s3)[C@@H]2C1 [Compound 388, 2-{6-[(1S,6R)-3-methyl-3,8-diazabicyclo[4.2.0]octan-8-yl][1,3]thiazolo[4,5-c]pyridazin-3-yl}-5-(1H-pyrazol-4-yl)phenol] |
| ≤ 100 nM | Oc1cc(-c2cn[nH]c2)ccc1-c1cc2sc(N3C[C@@H]4CCNC[C@@H]43)nc2nn1 [Compound 389, 2-{6-[(1R,6S)-3,8-diazabicyclo[4.2.0]octan-8-yl][1,3]thiazolo[4,5-c]pyridazin-3-yl}-5-(1H-pyrazol-4-yl)phenol] |
| ≤ 100 nM | CN1CC[C@H]2CN(c3nc4nnc(-c5ccc(-c6cn[nH]c6)cc5O)cc4s3)[C@H]2C1 [Compound 390, 2-{6-[(1R,6S)-3-methyl-3,8-diazabicyclo[4.2.0]octan-8-yl][1,3]thiazolo[4,5-c]pyridazin-3-yl}-5-(1H-pyrazol-4-yl)phenol] |
| ≤ 100 nM | CN1CCC(N(C)c2nc3nnc(-c4ccc(-c5c[nH]nc5F)cc4O)cc3s2)C1 (stereo not drawn) [Compound 391, 5-(3-fluoro-1H-pyrazol-4-yl)-2-{6-[methyl(1-methylpyrrolidin-3-yl)amino][1,3]thiazolo[4,5-c]pyridazin-3-yl]phenol] |
| 1000 to 3000 nM | CN1CCC2(CC1)CN(c1nc3nnc(-c4ccc(-c5c[nH]nc5F)cc4O)cc3s1)C2 [Compound 392, 5-(3-fluoro-1H-pyrazol-4-yl)-2-[6-(7-methyl-2,7-diazaspiro[3.5]nonan-2-yl)[1,3]thiazolo[4,5-c]pyridazin-3-yl]phenol] |

| Structure (SMILES) | IC50 |
| --- | --- |
| CN(c1nc2nnc(-c3ccc(-c4cn[nH]c4)cc3O)cc2s1)[C@@H]1CCNC[C@H]1F [Compound 365, 2-(6-{[(3R,4R)-3-fluoropiperidin-4-yl](methyl)amino}[1,3]thiazolo[4,5-c]pyridazin-3-yl)-5-(1H-pyrazol-4-yl)phenol] | 100 to 500 nM |
| CN(c1nc2nnc(-c3ccc(-c4cn[nH]c4)cc3O)cc2s1)[C@H]1CCN[C@H](CO)C1 [Compound 371, 2-(6-{[(2S,4S)-2-(hydroxymethyl)piperidin-4-yl](methyl)amino}[1,3]thiazolo[4,5-c]pyridazin-3-yl)-5-(1H-pyrazol-4-yl)phenol] | ≤ 100 nM |
| CN1CC[C@H](N(C)c2nc3nnc(-c4ccc(-c5cn[nH]c5)cc4O)cc3s2)C[C@H]1CO [Compound 372, 2-(6-{[(2S,4S)-2-(hydroxymethyl)-1-methylpiperidin-4-yl](methyl)amino}[1,3]thiazolo[4,5-c]pyridazin-3-yl)-5-(1H-pyrazol-4-yl)phenol] | ≤ 100 nM |
| CC1CC(N(C)c2nc3cnc(-c4cc(C#N)c5nn(C)cc5c4)cc3s2)CCN1C (stereo not drawn) [Compound 377, 5-{2-[(1,2-dimethylpiperidin-4-yl)(methyl)amino][1,3]thiazolo[4,5-c]pyridin-6-yl}-2-methyl-2H-indazole-7-carbonitrile] | 100 to 500 nM |
| CC1CC(N(C)c2nc3cnc(-c4cc(F)c5nn(C)cc5c4)cc3s2)CCN1C (stereo not drawn) [Compound 378, N-(1,2-dimethylpiperidin-4-yl)-6-(7-fluoro-2-methyl-2H-indazol-5-yl)-N-methyl[1,3]thiazolo[4,5-c]pyridin-2-amine] | 100 to 500 nM |
| Cc1cn2cc(-c3cc4sc(N(C)C5CCN(C)C(C)C5)nc4cn3)cc(C#N)c2n1 (stereo not drawn) [Compound 379, 6-{2-[(1,2-dimethylpiperidin-4-yl)(methyl)amino][1,3]thiazolo[4,5-c]pyridin-6-yl}-2-methylimidazo[1,2-a]pyridine-8-carbonitrile] | ≤ 100 nM |
| Cc1cn2cc(-c3cc4sc(N(C)C5CCN(C)C(C)C5)nc4cn3)cc(F)c2n1 (stereo not drawn) [Compound 380, N-(1,2-dimethylpiperidin-4-yl)-6-(8-fluoro-2-methylimidazo[1,2-a]pyridin-6-yl)-N-methyl[1,3]thiazolo[4,5-c]pyridin-2-amine] | 100 to 500 nM |
| CN(c1nc2nnc(-c3ccc(-c4cn[nH]c4)cc3O)cc2s1)C1CCN(C2CC2)CC1 [Compound 383, 2-{6-[(1-cyclopropylpiperidin-4-yl)(methyl)amino][1,3]thiazolo[4,5-c]pyridazin-3-yl}-5-(1H-pyrazol-4-yl)phenol] | ≤ 100 nM |
| CN(c1nc2nnc(-c3ccc(-c4cn[nH]c4)cc3O)cc2s1)C1CCN(CCF)CC1 [Compound 384, 2-(6-{[1-(2-fluoroethyl)piperidin-4-yl](methyl)amino}[1,3]thiazolo[4,5-c]pyridazin-3-yl)-5-(1H-pyrazol-4-yl)phenol] | ≤ 100 nM |
| CCCN1CCC(N(C)c2nc3nnc(-c4ccc(-c5cn[nH]c5)cc4O)cc3s2)CC1 [Compound 393, 2-{6-[methyl(1-propylpiperidin-4-yl)amino][1,3]thiazolo[4,5-c]pyridazin-3-yl]-5-(1H-pyrazol-4-yl)phenol] | 1000 to 3000 nM |
